Measurements from patent US20250213593A1, “Use of Derivatives based on Sarsasapogenin Structure and Pharmaceutical Compositions thereof” (BEIJING PHYTOVENT PHARMACEUTICAL TECHNOLOGY CO., LTD., priority 2022, published 2025).
“Also recorded” adds a separate entry of the source. Marks after values point to notes of the source that are not given here.

Key:
[1] = test system: transgenic neutrophil fluorescent zebrafishes; experiment: Anti-inflammatory effect on LPS-induced inflammatory zebrafish; assay type: in vivo; settings: 80 μM; for Number of neutrophils (mean ± SE): 3 h, n = 10, model control 18, normal control 3
Procedure: LPS was used to treat normal 3 dpf transgenic neutrophil fluorescent zebrafishes in a yolk sac injection, and a zebrafish inflammation model was established.
Transgenic neutrophil fluorescent zebrafishes (3 dpf), well developed and consistent in stage on 3 days after fertilization, were picked under a microscope and placed in a six-well plate, with 30 zebrafishes being randomly picked for each well at a capacity of 3 mL in each well. A zebrafish inflammation model was established by administrating LPS in a yolk sac injection. “Embodiment 5” and “Embodiment 6” were respectively dissolved with water, wherein the concentrations were 0.28 μM, 0.83 μM and 2.5 μM, respectively. The concentration of indomethacin was 80 μM. Meanwhile, a normal control group (i.e., zebrafishes were treated with fish-farming water) and a model control group were set, and incubated in a 28° C. incubator for 3 h. 10 zebrafishes were randomly selected from each group, and observed and photographed under a fluorescence microscope, and the photos were saved. Nikon NIS-Elements D 3.10 advanced image processing software was used for image analysis, the number (N) of inflammatory neutrophils in zebrafish was calculated, and the statistical processing results were expressed as mean±SE. The statistical analysis results of the number of inflammatory neutrophils in zebrafish were used to evaluate whether “Embodiment 5” and “Embodiment 6” had significant anti-inflammatory effects on LPS-induced inflammatory zebrafish, respectively. A formula for calculating the anti-inflammatory effects of “Embodiment 5” and “Embodiment 6” was as follows: […]

[2] = test system: human SHSY5Y neural tumor cells; experiment: H2O2-induced oxidative damage of SHSY5Y cells (MTT); assay type: cell-based; settings: 1 μM, pre-protected 24 h, 250 μM H2O2 24 h
[3] = test system: hippocampal neurons; experiment: L-cysteine-induced neuronal excitotoxicity; assay type: cell-based, SD rats; settings: for protective effects on L-Cystine (400 μM)-induced neuronal excitotoxicity: compound 1 μM, 24 h before inducer
Procedure: Experimental and analytical method: before the experiment, a 24-well cell culture plate was pretreated with Poly-D-lysine and placed in a cell incubator at 37° C. and 5% CO2 overnight. SD rats, 18 days pregnant, were ordered, brains of fetal rats (E18-19) were dissected, and hippocampal neurons in the brains were subjected to primary culture in a neuronal medium using a 24-well plate, and then cultured by a serum-free medium. The hippocampal neurons were cultured in a cell incubator at 37° C., 5% CO2 for 19 days (DIV19), then added with a compound to be tested (a final concentration of 1 μM) and a positive control AP5 [(2R)-amino-5-phosphonopentanoic acid(phosphonatopentanoate)] (a final concentration of 100 μM), cultured for 24 h, and then added with L-Cystine (400 μM) and NaHCO3 (10 mM). After 18 h, Hoechst3342 (2.5 μg/ml) was added for cell staining. The cells were placed in the incubator and cultured for 15 min, and photographed using the high-content fluorescence microscope, wherein 6 random non-overlapping fields were photographed for each duplicate well, and the total number of neurons and the number of dead neurons were counted with software Image J. The obtained data was used to determine whether there was a difference between a drug treatment group and a control group.
Compound treatment: 32 small molecule compounds in Embodiment 1 to Embodiment 19A were diluted with DMSO to a 1 mM mother solution; and 1 μL of mother solution was added to 1 ml of culture solution per well in a 24-well plate to a final concentration of 1 μM, wherein a positive control compound was […] of AP5 (100 mM mother solution), and a negative control was 1 μl of DMSO.

[4] = test system: rats with ulcerative colitis induced by TNBS; experiment: TNBS rats enteritis model; assay type: in vivo, rat; settings: 80 mpk oral gavage once a day, 7 days
Procedure: All rats except the normal control group were fasted for solids (not liquids) for 24 h. After being anesthetized with isoflurane, the rats were transrectally infused with a TNBS ethanol solution (18 mg TNBS/mouse) at 0.5 mL/mouse through a latex hose, the length of the hose into the rectum was about 8 cm, an anesthesia state was continued after the hose was withdrawn, and the rats were kept in an inclined state for 15 min. The rats in the normal control group were not stimulated with rectal cannula. After the animals were awake, they were randomly divided into groups, which then began to be administrated with drugs (marked as D1). The blank group and the model group were administrated with the same amount of vehicle by oral gavage once a day for 7 consecutive days (D1-D7). The animal's status and feces (loose stools or bloody stools) were observed every day. The body weights were monitored. On the next day after the last administration (D8), the animals were deeply anesthetized with CO2, sacrificed and dissected. The entire colon tissues were harvested. The colon content was washed with normal saline after dissection along the mesenteric side. The body weights were measured and the colon lengths were measured. A ulcer surface was measured by Image J software. The general conditions of the colons were observed and photographed. Some of diseased tissues were fixed with formalin, and subjected to histopathological observation by HE staining. • Results: (1) the effects on general conditions of TNBS colitis mice were shown in FIG. 46a: the rats had loose stool on the next day of TNBS modeling; and the modeled mice had symptoms of reduced diet, tiredness, emaciation, erect hair, and dull hair. The feces of some rats were improved in the later stage of administration, but some rats still maintained loose stool until the end of the experiment, and some rats had obvious abdominal distension in the later stage of the experiment.

[5] = test system: C57BL/6J mice, LPS-induced peripheral and central inflammation; experiment: LPS-induced peripheral and central inflammation mouse model; assay type: in vivo; settings: 30 mg/kg p.o. QD*3
Procedure: Modeling method: LPS (2 mg/kg, i.p., QD) was injected on Day 1, Day 2 and Day 3 to induce peripheral and central inflammations of mice. An ND drug test group was subjected to administration pre-protection (ND 30 mg/kg, p.o., QD) 2 h before LPS injection. After the experiment, plasma and brain tissues of the mice were collected for inflammatory factors, peroxidation factors and other indicators.
• Serum: after the mice were anesthetized with 1% sodium pentobarbital, the eyeballs were harvested, the blood was taken and placed in an EP tube, and then centrifuged at low temperature after standing at 4° C. for 1 h, and a supernatant was taken, and frozen quickly in liquid nitrogen. • Hippocampal tissues: the mice were anesthetized with 1% sodium pentobarbital and then subjected to cardiac perfusion with cold PBS, brains were harvested, and tissues were taken on ice and frozen quickly in an EP tube with liquid nitrogen.
Cryopreserved plasma was taken, and an reactive oxygen detection kit, a hydrogen peroxide detection kit and a nitric oxide detection kit were used to detect various indicators. The specific operation processes were the same as the instruction of each kit.
The cryopreserved hippocampal tissues were taken, added with a RIPA tissue lysate containing a protease inhibitor, fully homogenized and cleaved. A supernatant was taken after low-temperature centrifugation. The protein quantification was performed by a BCA protein quantification kit. Tissue samples were adjusted to a unified protein concentration. An reactive oxygen detection kit, a hydrogen peroxide detection kit and a nitric oxide detection kit were used to detect various indicators.
Cryopreserved plasma was taken, and IL-1β, IL-6 and IL-10 kits were used to detect various indicators. The specific operation processes were the same as the instruction of each kit.
A hippocampal tissue supernatant was taken, and IL-1β, IL-6 and IL-10 kits were used to detect various indicators. The specific operation processes were the same as the instruction of each kit.
Experimental results were expressed as “mean±standard deviation”. One-way ANOVA was used to compare the data of each group to determine whether there was a statistical difference between the groups.

[6] = test system: mice with ulcerative colitis induced by 3.0% DSS; experiment: DSS mouse enteritis model; assay type: in vivo
Description: 60 mice in good health were divided into 6 groups according to body weight, with 10 mice in each group: a normal control group, a model group, a positive drug group, and groups of different test products (Embodiment 13B, Embodiment 33, and Embodiment 34, at a dosage of 80 mpk each). In addition to the normal control group, the mice in other groups were administrated with a 3.0% DSS solution to drink freely, and consecutively modeled for 8 days. The normal control group was administrated with autoclaved filtered water to drink freely. The drug was administered on the day of modeling, and a test product was administered by oral gavage according to a designed dosage, once a day for 9 consecutive days. […] On the next day after the last administration, after deep anesthesia with CO2, cardiac blood and plasma were collected, and cryopreserved at −80° C. Subsequently, the abdominal cavity was dissected, the liver was removed and cryopreserved at −80° C. Finally, the entire colon tissue was removed, the colon length was measured, photographs were taken, and the colon content was washed with normal saline after dissection along the mesenteric side and weighed.

[7] = 80 mpk oral gavage once a day, 9 days

COc1ccc2c(c1)c(CC(=O)O)c(C)n2C(=O)c1ccc(Cl)cc1 [indomethacin, Indomethacin, reference compound]
Inflammation resolution (%) / anti-inflammatory effect [1]: 67% | Number of neutrophils (mean ± SE) [1]: 6 | Number of neutrophils (mean ± SE) ([1]; listed as Indomethacin): 6 ± 0.31 | anti-inflammatory effect on inflammatory zebrafish (in words) ([1]; P<0.001 vs model control): obvious anti-inflammatory effect | Inflammation resolution (%) / anti-inflammatory effect ([1]; listed as Indomethacin): 67*** %

C[C@H]1CC[C@@]2(OC1)OC1CC3C4CC[C@@H]5C[C@@H](NC(=O)CC(=O)NCCO)CC[C@]5(C)C4CC[C@]3(C)C1[C@@H]2C (stereo partly shown) [Embodiment 14A]
protection of H2O2-induced neural tumor cell damages [2]: significantly protected

C[C@H]1CC[C@@]2(OC1)O[C@H]1C[C@H]3[C@@H]4CC[C@@H]5C[C@H](NC(=O)CCN(C)C)CC[C@]5(C)[C@H]4CC[C@]3(C)[C@H]1[C@@H]2C [Embodiment 4B]
protective effects on L-Cystine (400 μM)-induced neuronal excitotoxicity [3]: protective effects

C[C@H]1CC[C@@]2(OC1)O[C@H]1C[C@H]3[C@@H]4CC[C@@H]5CC(NC(=O)CCN6CCN(C)CC6)CC[C@]5(C)[C@H]4CC[C@]3(C)[C@H]1[C@@H]2C (stereo partly shown) [Embodiment 1]
protective effects on L-Cystine (400 μM)-induced neuronal excitotoxicity [3]: protective effects

C[C@H]1CC[C@@]2(OC1)O[C@H]1C[C@@H]3[C@H](CC[C@H]4[C@H]3CC[C@@H]3CC(NC(=O)CC(=O)NCC5CCN(C)CC5)CC[C@@]34C)[C@H]1[C@@H]2C (stereo partly shown) [Embodiment 7]
protection of H2O2-induced neural tumor cell damages [2]: significantly protected

C[C@H]1CC[C@@]2(OC1)O[C@H]1C[C@H]3[C@@H]4CC[C@@H]5CC(NC(=O)CC(=O)N6CCN(C7CCN(CCF)CC7)CC6)CC[C@]5(C)C4CC[C@]3(C)[C@H]1[C@@H]2C (stereo partly shown) [Embodiment 36]
colon ulcer area [4]: could reduce | colon weight per unit length (colon weight/colon length) [4]: could reduce

C[C@@H]1CC[C@@]2(OC1)OC1CC3C4CC[C@H]5C[C@@H](NC(=O)CCN(C)C)CC[C@]5(C)C4CC(=O)[C@]3(C)C1[C@@H]2C (stereo partly shown) [Embodiment 20A]
IL-10 in hippocampus [5]: only affected | IL-10 in serum [5]: only affected | anti-inflammatory effect (in words) [5]: obvious anti-inflammatory effect; also recorded: good anti-inflammatory effect | antioxidant effect (in words) [5]: good antioxidant effect | H2O2 concentration in serum ([5]; vs LPS group): significantly improved | NO concentration in serum ([5]; vs LPS group): significantly improved | ROS level in serum ([5]; vs LPS group): significantly improved

CC(C)N1CCC(N2CCN(C(=O)CC(=O)NC3CC[C@]4(C)C5CC[C@]6(C)[C@@H]7[C@H](C[C@H]6[C@@H]5CC[C@@H]4C3)O[C@]3(CC[C@H](C)CO3)[C@H]7C)CC2)CC1 (stereo partly shown) [Embodiment 34]
colon length [6, 7]: could increase the weights and lengths of the colons | colon weight [6, 7]: could increase the weights and lengths of the colons | general conditions of DSS colitis mice [6, 7]: certain improvement effects

O=C(O)c1cc(/N=N/c2ccc(S(=O)(=O)Nc3ccccn3)cc2)ccc1O [SASP, reference compound]
colon atrophy ([6]; 720 mg/kg positive drug): could inhibit colon atrophy | general conditions of DSS colitis mice ([6]; 720 mg/kg positive drug): certain improvement effects

CC(C)CN1CCN(C2CCN(C(=O)CC(=O)NC3CC[C@]4(C)C5CC[C@]6(C)[C@@H]7[C@H](C[C@H]6[C@@H]5CC[C@@H]4C3)O[C@]3(CC[C@H](C)CO3)[C@H]7C)CC2)CC1 (stereo partly shown) [Embodiment 33]
colon length [6, 7]: could increase the weights and lengths of the colons | colon weight [6, 7]: could increase the weights and lengths of the colons | general conditions of DSS colitis mice [6, 7]: certain improvement effects

N[C@H](CCCP(=O)(O)O)C(=O)O [AP5, (2R)-amino-5-phosphonopentanoic acid(phosphonatopentanoate), reference compound]
protective effect on the neuronal excitotoxicity ([3]; AP5 100 μM): very significant protective effect | proportion of dead cells ([3]; AP5 100 μM, L-Cystine 400 μM + NaHCO3 10 mM, without inducer 20.12%, DMSO 87.62%): 27.58%

C[C@H]1CC[C@@]2(OC1)O[C@H]1C[C@H]3[C@@H]4CC[C@@H]5CC(NC(=O)CC(=O)N6CCNCC6)CC[C@]5(C)[C@H]4CC[C@]3(C)[C@H]1[C@@H]2C (stereo partly shown) [Embodiment 10]
protective effects on L-Cystine (400 μM)-induced neuronal excitotoxicity [3]: protective effects

C[C@H]1CC[C@@]2(OC1)O[C@H]1C[C@H]3[C@@H]4CC[C@@H]5CC(NC(=O)CC(=O)N6CCN(C(=O)CN(C)C)CC6)CC[C@]5(C)C4CC[C@]3(C)[C@H]1[C@@H]2C (stereo partly shown) [Embodiment 37]
colon ulcer area [4]: could reduce | colon weight per unit length (colon weight/colon length) [4]: could reduce
